{
  "source": "patent US8785500B2",
  "about": "“Intranasal administration of ketamine to treat depression” (priority 2006, dated 2014)",
  "key": {"[1]": {"details": "in vivo; cited from earlier work"}, "[2]": {"experiment": "Intranasal versus intravenous ketamine plasma levels", "details": "human, other: intranasal", "method": "The slow infusion of ketamine produces gradually increasing plasma levels during the infusion period. Dose-wise, the typical ketamine dose for surgical induction is between 1.0-2.0 mg/kg, with additional ketamine used to sustain anesthesia."}, "[3]": {"system": "women after abdominal gynecological surgery with lidocaine epidural blockade", "details": "cited from earlier work"}, "[4]": {"system": "men and women with intractable central neuropathic pain", "details": "cited from earlier work; for pain disability and subjective physical and mental function: 75 mg transdermally over 24 hours for 7 days"}, "[5]": {"details": "in vivo; cited from earlier work", "remark": "listed apart in the source"}, "NMDA receptor": {"system": "NMDA receptor", "details": "cited from earlier work"}, "[6]": {"system": "chronic pain patients with breakthrough pain (BTP)", "details": "10-50 mg intranasal; cited from earlier work"}, "male Wistar rats": {"system": "male Wistar rats", "details": "single dose; cited from earlier work"}, "[7]": {"system": "subjects with major depression", "details": "cited from earlier work"}, "[8]": {"system": "subjects with DSM-IV treatment-resistant major depression", "experiment": "Randomized, placebo-controlled, double-blind crossover study of a single intravenous ketamine hydrochloride infusion", "details": "for effect size for the drug difference (d), HDRS: ketamine vs placebo", "text": "Treatment-resistant major depression is a relatively common occurrence in clinical practice, with up to 50 to 60% of patients not achieving adequate response following antidepressant treatment. […] If the depression has not benefited from at least two adequate trials of medications from different classes in the current episode, clinically significant resistance is present. Several schemes to “stage” the degree of resistance have been proposed. The most widely accepted scheme uses the staging system of Thase and Rush. The stages of resistance are as follows:\nThus, the patient population to be treated by the present invention may be defined according to any one or more of the above schemes. After a 2-week drug-free period, exemplary subjects having treatment-resistant depression were given an intravenous infusion of either ketamine hydrochloride (0.5 mg/kg) or placebo on 2 test days, a week apart. Subjects were rated at baseline and at 40, 80 minutes, 110 minutes, 230 minutes and days 1, 2, 3 and 7 post-infusion. The outcome of the treatment was measured using changes in scores on the primary efficacy to measure the 21-item Hamilton Depression Rating Scale (HDRS).\nMen and women, ages 18 to 65 years, who were inpatients with a diagnosis of major depressive disorder recurrent without psychotic features as diagnosed by means of the Structured Clinical Interview for Axis I DSM-IV Disorders—Patient Version 28 were eligible to participate.\nAll subjects were in good physical health as determined by medical history, physical exam, blood labs, electrocardiogram, chest x-ray, urinalysis and toxicology. Subjects were free of comorbid substance abuse or dependence for at least 3 months and judged clinically not to be a serious suicidal risk.\nAfter a 2 week drug-free period, 18 subjects with DSM-IV major depression were randomized to an intravenous infusion of either ketamine hydrochloride (0.5 mg/kg) or placebo (saline solution) given over 40 minutes with a Baxter infusion pump on 2 test days, a week apart, in a double-blind, crossover study. Seventeen subjects received ketamine and 14 received placebo.\nSubjects were rated 60 minutes prior to the infusion and at 40, 80, 110, and 230 minutes as well as 1, 2, 3, and 7 days after the infusion. The 21-item HDRS, Beck Depression Inventory Scale (BDI; [31]), Brief Psychiatric Rating Scale-positive symptoms (BPRS; [32]), Young Mania Rating Scale (YMRS; [33]), and the visual analogue scales score (VAS-depression; [34]). Raters, who trained together to establish reliability, performed patient ratings. […] Subjects were rated by a separate set of raters to help maintain blind to the infusion procedures and resulting side effects. The first set of raters administered the scales on the day of infusion (60 minutes prior to the infusion and 40, 80, 110 post-infusion). From 230 minutes onwards (days 1 through 7), a separate group of raters rated the subjects. Clinical response was defined as a 50% or greater decrease in the HDRS rating scale from baseline and remission as HDRS≦7 [35].\nA full factorial, fixed effects linear mixed model with a compound symmetry covariance structure was used to examine the differences between ketamine and placebo over 9 time points from baseline to 7 days. Restricted maximum likelihood estimation was used to estimate missing values. Significant effects were examined with simple effects tests. The 21-item HDRS was the primary outcome measure. Scores from the BDI, BPRS, YMRS, and VAS were secondary outcome measures. Secondary analysis included examination of the individual items of the HDRS. Significance was evaluated at α<0.05, two-tailed."}, "[9]": {"system": "non-NMDA voltage-gated potassium currents", "details": "in vitro; cited from earlier work"}, "major depression [10]": {"system": "major depression", "details": "reviews of antidepressant trials; cited from earlier work"}, "[11]": {"details": "clinical trials; cited from earlier work"}, "major depression [12]": {"system": "major depression", "details": "administered orally; cited from earlier work"}, "[13]": {"details": "both, human, in vivo, intravenous, 0.5 mg/kg"}, "[14]": {"details": "one day after infusion, intent to treat, n=17"}},
  "data": [
    {"smiles": "CNC1(c2ccccc2Cl)CCCCC1=O", "note": "(racemic) [ketamine, 2-(2-chlorophenyl)-2-(methylamino)-cyclohexanone]", "values": [
      {"measurement": "intranasal plasma levels (pain) lower than in intravenous studies in depression", "setting": "[1]", "result": "3-4 fold"},
      {"measurement": "i.v. dose roughly equivalent to the intranasal dose used for pain (50 mg)", "setting": "[2]", "result": "~0.1", "unit": "mg/kg"},
      {"measurement": "side effects", "setting": "[3]; transdermal 25 mg over 24 hrs", "result": "no side effects"},
      {"measurement": "time to rescue analgesic", "setting": "[3]; transdermal patch 25 mg/24 hours, placebo 94±54", "result": "230 ± 112", "unit": "min"},
      {"measurement": "pain disability and subjective physical and mental function", "setting": "[4]", "result": "significant improvement in pain disability, and subjective physical and mental function"},
      {"measurement": "half-life", "setting": "[5]", "result": "approximately 2 hours"},
      {"measurement": "affinity for the NMDA receptor in contrast to memantine", "setting": "NMDA receptor", "result": "higher affinity for the NMDA receptor"},
      {"measurement": "affinity for the NMDA receptor versus other sites", "setting": "NMDA receptor", "result": "several fold higher than that for other sites"},
      {"measurement": "open channel blocking/unblocking kinetics in contrast to memantine", "setting": "NMDA receptor", "result": "much slower open channel blocking/unblocking kinetics"},
      {"measurement": "breakthrough pain versus placebo", "setting": "[6]", "result": "lower BTP"},
      {"measurement": "side effects", "setting": "[6]", "result": "very few side effects"},
      {"measurement": "time for which induction of behavioral despair is interfered with", "setting": "male Wistar rats", "result": "up to 10 days"},
      {"measurement": "patients with 50% or greater decrease in HDRS during the 3-day follow-up period", "setting": "[7]; Berman et al.", "result": "4 of 8"},
      {"measurement": "onset of antidepressant effect post-infusion", "setting": "[7]; previous study (Berman et al.)", "result": 230, "unit": "min"},
      {"measurement": "antidepressant effect", "setting": "[7]; single intravenous dose, 7 subjects", "result": "rapid and short-lived antidepressant effect"},
      {"measurement": "onset of improvement in depression post-infusion", "setting": "[8]; HDRS vs placebo", "result": "≤ 2", "unit": "h"},
      {"measurement": "effect size for the drug difference (d), HDRS", "setting": "[8]; after 1 week, completers", "result": 0.68},
      {"measurement": "effect size for the drug difference (d), HDRS", "setting": "[8]; after 24 hours, completers", "result": 1.46},
      {"measurement": "only time at which BPRS positive symptoms were worse on ketamine than placebo", "setting": "[8]; [13]", "result": 40, "unit": "min"},
      {"measurement": "only time at which YMRS scores were worse (higher) on ketamine than placebo", "setting": "[8]; [13]", "result": 40, "unit": "min"},
      {"measurement": "time beyond which euphoria or derealization/depersonalization did not persist", "setting": "[8]; [13]", "result": "≤ 110", "unit": "min"},
      {"measurement": "earliest improvements, depressed mood and guilt (HDRS items)", "setting": "[8]; completers", "result": 40, "unit": "min"},
      {"measurement": "individual HDRS symptoms with only a significant main effect for drug", "setting": "[8]; completers", "result": "symptoms improved on ketamine for suicide, insomnia, general somatic symptoms, genital symptoms, and hypochondriasis"},
      {"measurement": "individual HDRS symptoms with significant time by drug interaction", "setting": "[8]; completers", "result": "Depressed mood, guilt, work and interests, and psychic anxiety improved significantly"},
      {"measurement": "time at which motor retardation and gastrointestinal symptoms (HDRS items) were worse", "setting": "[8]; completers", "result": 40, "unit": "min"},
      {"measurement": "time by which HDRS scores were lower on ketamine", "setting": "[8]; first phase data only, significant through the seventh day", "result": 80, "unit": "min"},
      {"measurement": "baseline HDRS in the second phase of those who received ketamine first (carryover)", "setting": "[8]; first-phase baseline 24.9±6.9, one week after infusion", "result": "17.2±6.9"},
      {"measurement": "Peak change in BPRS positive symptoms on Ketamine, Group", "setting": "[8]; group mean ±", "result": "+3.1 ± 3.4"},
      {"measurement": "% Change in HDRS (day 1) Ketamine, Group", "setting": "[8]; group mean ±, 0.5 mg/kg i.v. over 40 min, baseline to day 1", "result": "−56.2 ± 20.4", "unit": "%"},
      {"measurement": "side effects occurring more commonly on ketamine than placebo", "setting": "[8]; in vivo", "result": "perceptual disturbances, confusion, elevations in blood pressure, euphoria, dizziness, and increased libido"},
      {"measurement": "time after infusion within which side effects ceased", "setting": "[8]; majority of side effects", "result": "≤ 80", "unit": "min"},
      {"measurement": "subjects meeting remission criteria (HDRS≦7)", "setting": "[8]; [14]", "result": 29, "unit": "%"},
      {"measurement": "subjects meeting response criteria (50% or greater decrease in HDRS)", "setting": "[8]; [14]", "result": 71, "unit": "%"},
      {"measurement": "subjects who maintained response at least 2 weeks", "setting": "[8]; single infusion 0.5 mg/kg", "result": 2, "unit": "subjects"},
      {"measurement": "subjects who maintained response for at least 1 week", "setting": "[8]; single infusion 0.5 mg/kg", "result": 35, "unit": "%"},
      {"measurement": "time from which VAS depression (mood) improved on ketamine", "setting": "[8]; through 7 days", "result": 40, "unit": "min"},
      {"measurement": "time from which self-rated BDI improved on ketamine", "setting": "[8]; through 7 days, completers", "result": 40, "unit": "min"},
      {"measurement": "effect on non-NMDA voltage-gated potassium currents", "setting": "[9]", "result": "only reduces non-NMDA voltage-gated potassium currents at much higher than reported in patients anesthetized with ketamine"}
    ]},
    {"smiles": "CN[C@]1(c2ccccc2Cl)CCCCC1=O", "note": "[S(+)-ketamine]", "values": [
      {"measurement": "pain intensity (Visual Analog Scale)", "setting": "[4]; 50 mg, 75 mg or placebo", "result": "no change among groups"},
      {"measurement": "pain disability and subjective physical and mental function", "setting": "[4]", "result": "significant improvement in pain disability, and subjective physical and mental function"},
      {"measurement": "dissociation or psychotic symptoms", "setting": "[4]; in vivo", "result": "no reports of dissociation or psychotic symptoms"}
    ]},
    {"smiles": "CC(NC(C)(C)C)C(=O)c1cccc(Cl)c1", "note": "(centres unmarked) [bupropion]", "values": [
      {"measurement": "response rates at week 8", "setting": "major depression [10]", "result": 62, "unit": "%"}
    ]},
    {"smiles": "Nc1nnc(-c2cccc(Cl)c2Cl)c(N)n1", "note": "[lamotrigine]", "values": [
      {"measurement": "antidepressant properties", "setting": "[11]", "result": "found to have antidepressant properties"}
    ]},
    {"smiles": "CC12CC3CC(C)(C1)CC(N)(C3)C2", "note": "[memantine]", "values": [
      {"measurement": "antidepressant effects", "setting": "major depression [12]", "result": "did not show the low- to moderate-affinity non-competitive NMDA antagonist memantine, administered orally, to have antidepressants effects"}
    ]},
    {"smiles": "NC1(c2ccccc2Cl)CCCCC1=O", "note": "(centres unmarked) [norketamine]", "values": [
      {"measurement": "half-life", "setting": "[5]", "result": "~5", "unit": "h"}
    ]},
    {"smiles": "Nc1nc2ccc(OC(F)(F)F)cc2s1", "note": "[riluzole]", "values": [
      {"measurement": "antidepressant properties", "setting": "[11]", "result": "found to have antidepressant properties"}
    ]},
    {"smiles": "COc1ccc(C(CN(C)C)C2(O)CCCCC2)cc1", "note": "(centres unmarked) [venlafaxine]", "values": [
      {"measurement": "response rates at week 8", "setting": "major depression [10]", "result": 65, "unit": "%"}
    ]}
  ]
}
